Source: US20100325756A1, “PLASTID TRANSFORMATION UTILIZING ENDOGENOUS REGULATORY ELEMENTS” (priority 2009, published 2010)

Key:
Type in all cases: cell-based
[1] = system: L. sativa cultivar Great Lake (LG) leaf explants; assay: Direct shoot regeneration from leaf explants, cultivar Great Lake (LG)
Method: (§1) Seeds of L. sativa cultivars (New England Seed Co., Hartford, Conn.) were disinfected in a solution of 30% commercial bleach with 0.01%, Tween-20 for 5 min, rinsed five times in sterile water and placed on half strength Murashige and Skoog (MS; Murashige and Skoog, 1962) medium solidified with 0.6% Phytablend® (Caisson, N. Logan, Utah). After 21 days, fully expanded first leaves were dissected into 0.8 cm^2 and placed adaxial side on the medium. The culture medium was composed of MS basal salts, 3% sucrose and 0.6% Phytablend. Plant growth regulators were added to the medium as shown in table 1 and pH was adjusted to 5.8 prior autoclaving. Cultures were maintained at 26±2° C. at 40 μE m^2 s^−1 photon density; 16 hrs light/8 hrs dark.

[2] = system: L. sativa cultivar Lentissima (LL) leaf explants; assay: Direct shoot regeneration from leaf explants, cultivar Lentissima (LL)
Method: as §1

[3] = system: L. sativa cultivar Simpson Elite (LS) leaf explants; assay: Direct shoot regeneration from leaf explants, cultivar Simpson Elite (LS)
Method: as §1

[4] = system: L. sativa cultivar Evola (LE) leaf explants; assay: Direct shoot regeneration from leaf explants, cultivar Evola (LE)
Method: as §1

[5] = system: L. sativa cultivar Romaine (LR) leaf explants; assay: Direct shoot regeneration from leaf explants, cultivar Romaine (LR)
Method: as §1

Measured: EFF: Number of regenerated shoots/total explants

c1ccc(CNc2ncnc3[nH]cnc23)cc1 [BAP]
0: [1]; BAP 0.1 μg ml^−1 alone | [2]; BAP 0.1 μg ml^−1 alone | [3]; BAP 0.1 μg ml^−1 alone | [4]; BAP 0.1 μg ml^−1 alone | [5]; BAP 0.1 μg ml^−1 alone

O=C(O)Cc1cccc2ccccc12 [NAA]
0: [1]; NAA 0.1 μg ml^−1 alone | [2]; NAA 0.1 μg ml^−1 alone | [3]; NAA 0.1 μg ml^−1 alone | [4]; NAA 0.1 μg ml^−1 alone | [5]; NAA 0.1 μg ml^−1 alone
